Values quoted from earlier work in patent publication EP4568488B1, “VEGETABLE- AND/OR FRUIT-CONTAINING SNACK FOOD PRODUCTS AND MANUFACTURE THEREOF” (PepsiCo International Limited, priority 2022, dated 2024).
Read-outs that look alike come from different tables or passages of the source.

half-life time of β-carotene (convective hot-air drying of carrot slices at 45°C): 3.02 ± 0.04 h
half-life time of β-carotene (convective hot-air drying of carrot slices at 65°C): 1.43 ± 0.03 h
Compound: CC1=C(/C=C/C(C)=C/C=C/C(C)=C/C=C/C=C(C)/C=C/C=C(C)/C=C/C2=C(C)CCCC2(C)C)C(C)(C)CCC1 [β-carotene]
